Results from US4758555A, “Method for treating convulsions and epilepsy with organic copper compounds” (priority 1986, dated 1988).
“Also recorded” adds a separate entry of the source.

Experiments:
[1] = Sleep time / hypnosis or sedation; format: in vivo; settings: Table IX, intraperitoneal, 65 mg/kg; for Average Sleep Time: 5 animals
Method: In Phase I identification of anticonvulsant activity, test compounds were given intraperitoneally (IP) at 30, 100, 300 and, in some cases, 600 milligrams per kilogram (mg/kg) of body weight and protection against Maximal Electroshock and/or Metrazol-induced seizures was determined 30 minutes, 4 hours, or later. […] Subsequently the routine protocol was modified and certain of the test compounds (see Tables, infra) re-evaluated following subcutaneous (SC) injection at periods of up to 8 hours post injection. Subcutaneous administration can be helpful in determining whether or not hypnotic activity can be distinguished from anticonvulsant activity based upon the decreased rate of absorption associated with this route of administration as opposed to the more rapid rate of absorption associated with IP administration.

[2] = Maximal Electroshock Seizure Test; format: in vivo, male Carworth Farms #1 mice or Sprague-Dawley rats; settings: for Protection Against Seizure: Table IX, maximal electroshock, intraperitoneal, 65 mg/kg, 5 animals; for Protection against Maximal Electroshock-induced seizures (in words): running text; for Lowest active dose, MES (Phase I): Table V; for Anticonvulsant activity, Maximal Electroshock: Table VI; for Lowest effective dose, MES (Phase I): Table X
[3] = cited from earlier work; for Anticonvulsant activity reported previously (in words): 50, 100 and 300 mg/kg at 0.75, 1.5 and 3 hours post subcutaneous injection at a site different from Metrazol
[4] = Anticonvulsant activity, both or unspecified seizure models; format: in vivo, male Carworth Farms #1 mice or Sprague-Dawley rats
[5] = Lethality / acute toxicity (LD50 in 24 hours); settings: for Doses causing death in some of the test groups: in vivo; for Lethality (in words): dose and time given in the source
From the text: Test compounds were either dissolved in 0.9% saline, or suspended in either 30% polyethylene glycol 400 in 0.9% saline or 0.2% suspending agent like polyoxyethylene glycol or Tween 80 in 0.9% saline prior to injection into male Carworth Farms #1 mice or Sprague-Dawley rats.
In Phase I identification of anticonvulsant activity, test compounds were given intraperitoneally (IP) at 30, 100, 300 and, in some cases, 600 milligrams per kilogram (mg/kg) of body weight and protection against Maximal Electroshock and/or Metrazol-induced seizures was determined 30 minutes, 4 hours, or later. […] Subsequently the routine protocol was modified and certain of the test compounds (see Tables, infra) re-evaluated following subcutaneous (SC) injection at periods of up to 8 hours post injection.
All statistics were obtained by probit analyses.

[6] = Subcutaneous Pentylenetetrazol (Metrazol) Seizure Threshold Test; format: in vivo, male Carworth Farms #1 mice or Sprague-Dawley rats; settings: for Protection against Metrazol-induced seizures (in words): running text; for Lowest active dose, Metrazol (Phase I): Table V; for Anticonvulsant activity, Metrazol: Table VI; for Lowest effective dose, Metrazol (Phase I): Table X
[7] = Rotating rod neurotoxicity; settings: dose and time given in the source
[8] = known from literature; cited from earlier work
[9] = mouse, in vivo; cited from earlier work
[10] = SC at site different from injection of Metrazol

## CCC1(CCC(C)C)C(=O)NC(=O)NC1=O [Na amobarbital, sodium (Na) amobarbital, reference compound]
[1]
  Average Sleep Time: 0 min
[2]
  Protection Against Seizure: 0 Percent protected

## [Cl][Cu][Cl] [copper chloride]
[3]
  Anticonvulsant activity reported previously (in words): no anticonvulsant activity

## Nc1ccc(C(=O)[O-])c(O)c1.Nc1ccc(C(=O)[O-])c(O)c1.[Cu+2] [Cu(II)(4-aminosalicylate)2]
[4]; running text
  Anticonvulsant activity (in words): effective in preventing seizures
[5]
  Doses causing death in some of the test groups: higher than 300 mg/kg
  Lethality (in words): Lethal at higher doses
[2]; Table II, IP
  Anticonvulsant activity, Maximal Electroshock (Phase I): I

## O=C(O)c1ccccc1[O-].O=C(O)c1ccccc1[O-].[Cu+2] [Cu(II)(salicylate)2]
[4]; running text
  Anticonvulsant activity (in words): effective at the higher doses studied and for prolonged periods of up to 4 hours
[5]; 24-hour, Phase II
  LD50: 441 mg/kg
[6]; Phase II, SC
  ED50 for protection against Metrazol-induced seizures: 38 mg/kg
[6]; SC, 100 mg/kg, Phase II
  Time of peak effect, inhibition of Metrazol-induced seizures: 2 h
[6]
  Protection against Metrazol-induced seizures (in words): rapid onset of protection against the Metrazol-induced seizure which decreases over the extrapolated period of 7 hours
[2]; Phase II, SC
  ED50 for protection against Maximal Electroshock-induced seizures: 360 mg/kg
[2]; SC, 600 mg/kg, Phase II
  Time of peak effect, inhibition of Maximal Electroshock induced seizures: 7 h
[2]; SC, 600 mg/kg, at 24 hours, Phase II
  Inhibition of Maximal Electroshock-induced seizure: 37%
[2]; Table II, SC
  Anticonvulsant activity, Maximal Electroshock (Phase I): I
[2]
  Protection against Maximal Electroshock-induced seizures (in words): onset of protection against Maximal Electroshock-induced seizure was slower but the activity was prolonged over the 24-hour period; also recorded: inactive in protecting against the Maximal Electroshock-induced seizure in routine Phase I studies; also recorded: active in protecting against this seizure when higher doses were used and the activity was evaluated at different time periods

## Cc1ncc(CO)c(C=N[C@@H](Cc2c[nH]c3ccccc23)C(=O)[O-])c1[O-].O.O.[Cu+2] [Cu(II)Pyridoxylidene-L-tryptophanate(H2 O)2]
[4]; running text
  Anticonvulsant activity (in words): more effective but only protected against the Metrazol-induced seizure
[6]; IP, challenge time 30 min
  Lowest active dose, Metrazol (Phase I): 30 mg/kg of body weight
[6]; IP, challenge time 4 hrs
  Lowest active dose, Metrazol (Phase I): 30 mg/kg of body weight
[2]; IP, challenge time 30 min
  Lowest active dose, MES (Phase I): I
[2]; IP, challenge time 4 hrs
  Lowest active dose, MES (Phase I): I

## O=C([O-])c1ccc([N+](=O)[O-])cc1O.O=C([O-])c1ccc([N+](=O)[O-])cc1O.[Cu+2] [Cu(II)(4-nitrosalicylate)2]
[4]; running text
  Anticonvulsant activity (in words): effective in preventing seizures
[5]
  Doses causing death in some of the test groups: higher than 100 mg/kg
[2]; Table II, IP
  Anticonvulsant activity, Maximal Electroshock (Phase I): I

## C1CCc2nnnn2CC1.[Cl-].[Cl-].[Cu+2] [Cu(II)(Metrazol)Cl2]
[4]; running text
  Anticonvulsant activity (in words): some anticonvulsant activity when injected at a site different from the site of Metrazol injection
[7]
  Rotating rod toxicity (in words): no rotating rod toxicity at doses up to 600 mg/kg
[2]; IP
  Anticonvulsant activity, Maximal Electroshock: I
[2]; [10]
  Anticonvulsant activity, Maximal Electroshock: I

## Cu(II)Pyridoxylidene-L-phenylalaninate(H2 O)2
[4]; running text
  Anticonvulsant activity (in words): no activity
[6]; IP, challenge time 30 min
  Lowest active dose, Metrazol (Phase I): I
[6]; IP, challenge time 4 hrs
  Lowest active dose, Metrazol (Phase I): I
[2]; IP, challenge time 30 min
  Lowest active dose, MES (Phase I): I
[2]; IP, challenge time 4 hrs
  Lowest active dose, MES (Phase I): I

## Copper acetate [Cu(II)2 (acetate)4]
[4]; running text
  Anticonvulsant activity (in words): active when injected at the same site as the site of Metrazol injection; also recorded: lack of anticonvulsant activity
[4]; running text, listed as copper acetate
  Anticonvulsant activity (in words): inactive when administered orally
[6]; [10]
  Anticonvulsant activity, Metrazol: I
[6]; intragastric
  Anticonvulsant activity, Metrazol: I
[6]; intraperitoneal (copper acetate: site different from Metrazol)
  Lowest dose with activity against Metrazol-induced seizures: 5 mg/kg
[6]
  Protection against Metrazol-induced seizures (in words): effective in inhibiting Metrazol-induced seizures
[3]
  Anticonvulsant activity reported previously (in words): no anticonvulsant activity
[2]; IP
  Anticonvulsant activity, Maximal Electroshock: I
[2]; SC, same injection site used for injection of Metrazol
  Anticonvulsant activity, Maximal Electroshock: I
[2]; intragastric
  Anticonvulsant activity, Maximal Electroshock: I

## CN1C(=O)CN=C(c2ccccc2)c2cc(Cl)ccc21.CN1C(=O)CN=C(c2ccccc2)c2cc(Cl)ccc21.[Cl-].[Cl-].[Cu+2] [Cu(II)(Diazepam)2 (Cl)2]
[4]
  Onset and duration of anticonvulsant action (in words): rapid onset of action and prolonged duration following intraperitoneal administration
[6]; IP, challenge time 30 min
  Lowest effective dose, Metrazol (Phase I): 30 milligrams per kilogram of bod
[6]; IP, challenge time 4 hrs
  Lowest effective dose, Metrazol (Phase I): 30 milligrams per kilogram of bod
[2]; IP, challenge time 30 min
  Lowest effective dose, MES (Phase I): 30 milligrams per kilogram of bod
[2]; IP, challenge time 4 hrs
  Lowest effective dose, MES (Phase I): 30 milligrams per kilogram of bod

## Cc1ncc(CO)c(C=NCC(=O)[O-])c1[O-].Cc1ncc(CO)c(C=NCC(=O)[O-])c1[O-].O.O.O.[Cu+2].[Cu+2] [Cu(II)Pyridoxylideneglycinate(H2 O)1.5]
[4]; running text
  Anticonvulsant activity (in words): protected against both types of seizure
[6]; IP, challenge time 30 min
  Lowest active dose, Metrazol (Phase I): 100 mg/kg of body weight
[6]; IP, challenge time 4 hrs
  Lowest active dose, Metrazol (Phase I): I
[2]; IP, challenge time 30 min
  Lowest active dose, MES (Phase I): 300 mg/kg of body weight
[2]; IP, challenge time 4 hrs
  Lowest active dose, MES (Phase I): I

## Cu(II)2 (phenylacetate)4
[7]
  Rotating rod toxicity (in words): Rotating rod toxicity at 300 mg/kg
[6]
  Protection against Metrazol-induced seizures (in words): effective in protecting against Metrazol-induced seizures

## O=C(O)c1ccccc1O [salicylate]
[8]
  Convulsions / CNS toxicity at high doses: cause convulsions at high doses

## CC[C@H](C)[C@H](N)C(=O)[O-].CC[C@H](C)[C@H](N)C(=O)[O-].[Cu+2] [Cu(II)(L-isoleucinate)2]
[4]; listed as isoleucine complex
  Anticonvulsant activity (in words): inhibited both the Maximal Electroshock and Metrazol-induced seizures in these Phase I tests
[4]; running text
  Anticonvulsant activity (in words): found to have anticonvulsant activity
[5]
  Lethality (in words): Lethal at higher doses

## CC(=O)CC(C)=NCCN=C(C)CC(C)=O.[Cu] [Cu(II) Bisacetylacetonethyleneimine]
[4]; running text
  Anticonvulsant activity (in words): effective in preventing both Maximal Electroshock and Metrazol-induced seizures
[7]; listed as bisacetylacetonethyleneimine complex
  Rotating rod toxicity (in words): rotating rod toxicity, which may also have been due to hypnotic activity, was found at the higher doses studied

## Cu(II)2 (valproate)4
[4]
  Onset and duration of anticonvulsant action (in words): rapid onset and short duration of activity following intraperitoneal administration; also recorded: prolonged onset of activity at a higher dose following subcutaneous administration
[6]; IP, challenge time 30 min
  Lowest effective dose, Metrazol (Phase I): 100 milligrams per kilogram of bod
[6]; IP, challenge time 4 hrs
  Lowest effective dose, Metrazol (Phase I): I
[6]; SC, challenge time 30 min
  Lowest effective dose, Metrazol (Phase I): I
[6]; SC, challenge time 4 hrs
  Lowest effective dose, Metrazol (Phase I): 600 milligrams per kilogram of bod
[6]
  Protection against Metrazol-induced seizures (in words): effective in protecting against Metrazol-induced seizures; also recorded: some inhibitory activity against Metrazol-induced seizures
[2]; IP, challenge time 30 min
  Lowest effective dose, MES (Phase I): I
[2]; IP, challenge time 4 hrs
  Lowest effective dose, MES (Phase I): I
[2]; SC, challenge time 30 min
  Lowest effective dose, MES (Phase I): I
[2]; SC, challenge time 4 hrs
  Lowest effective dose, MES (Phase I): I
[2]
  Protection against Maximal Electroshock-induced seizures (in words): ineffective against Maximal Electroshock seizures

## O.O=C1Nc2ccc(Cl)cc2C(c2ccccc2Cl)=NC1O.O=C1Nc2ccc(Cl)cc2C(c2ccccc2Cl)=NC1O.[Cl-].[Cl-].[Cu+2] (stereo not drawn) [Cu(II)(Lorazepam)2 (Cl)2 H2 O]
[4]
  Onset and duration of anticonvulsant action (in words): rapid onset of action and prolonged duration following intraperitoneal and subcutaneous administration
[4]; running text
  Anticonvulsant activity (in words): appears to be quite active
[6]; IP, challenge time 30 min
  Lowest effective dose, Metrazol (Phase I): I
[6]; IP, challenge time 4 hrs
  Lowest effective dose, Metrazol (Phase I): I
[6]; SC, challenge time 30 min
  Lowest effective dose, Metrazol (Phase I): I
[6]; SC, challenge time 4 hrs
  Lowest effective dose, Metrazol (Phase I): I
[2]; IP, challenge time 30 min
  Lowest effective dose, MES (Phase I): 20 milligrams per kilogram of bod
[2]; IP, challenge time 4 hrs
  Lowest effective dose, MES (Phase I): 30 milligrams per kilogram of bod
[2]; SC, challenge time 30 min
  Lowest effective dose, MES (Phase I): 20 milligrams per kilogram of bod
[2]; SC, challenge time 4 hrs
  Lowest effective dose, MES (Phase I): 100 milligrams per kilogram of bod

## C1CCc2nnnn2CC1 [Metrazol, pentylenetetrazol]
[9]
  CNS stimulation / rotating rod toxicity (known): potent central nervous system stimulant; also recorded: marked rotating rod toxicity
[3]; 85 mg/kg subcutaneous
  Seizures produced: greater than 97 % of mice

## CCC1(CCC(C)C)C(=O)[N-]C(=O)NC1=O.CCC1(CCC(C)C)C(=O)[N-]C(=O)NC1=O.[Cu+2] [Cu(II)(amobarbital)2]
[4]; in vivo
  Potency or effectiveness relative to a comparator (in words): more potent anticonvulsant than sodium (Na) amobarbital
[1]
  Sleep (in words): All animals slept
  Average Sleep Time: 16 min
[2]
  Protection Against Seizure: 100 Percent protected

## CC(=O)Nc1ccc(C(=O)[O-])c(O)c1.CC(=O)Nc1ccc(C(=O)[O-])c(O)c1.[Cu+2] [Cu(II)(4-acetylaminosalicylate)2]
[4]; running text
  Anticonvulsant activity (in words): effective in preventing seizures
[5]
  Lethality (in words): Lethal at 100 mg/kg at 4 hours
[6]; Table II, IP
  Anticonvulsant activity, Metrazol (Phase I): I

## Cu(II) Salicylidene-L-valinate
[5]
  Lethality (in words): Lethal at higher doses
[5]; listed as salicylidene-L-valinate complex
  Lethality (in words): caused lethality at higher doses
[2]; Table IV, IP
  Anticonvulsant activity, Maximal Electroshock (Phase I): I
[2]; Table IV, SC
  Anticonvulsant activity, Maximal Electroshock (Phase I): I
